US20220184240A1, “ORGANIC COMPOUNDS” (INTRA-CELLULAR THERAPIES, INC., priority 2019, published 2022)
One block for each molecule: values may come before it.

Assays:
[1] = target: PDE11A (Homo sapiens, UniProt Q9HCR9); test: PDE panel inhibitory constant (Ki) determination; assay type: biochemical
Description: (§1) Inhibitory constant (Ki) values for Compound 1 were determined against a full panel of phosphodiesterase family members. […] In contrast, potency of Compound 1 for PDE1 A, B and C is roughly equivalent.

[2] = system: PDE6; test: PDE panel inhibitory constant (Ki) determination; assay type: biochemical
Description: as §1

[3] = PDE panel inhibitory constant (Ki) determination; assay type: biochemical; conditions: PDE1D
Description: as §1

[4] = target: PDE1A (Homo sapiens, UniProt P54750); test: PDE panel inhibitory constant (Ki) determination; assay type: biochemical
Description: as §1

[5] = system: PDE1 (Bovine Brain); test: PDE panel inhibitory constant (Ki) determination; assay type: biochemical
Description: as §1

[6] = target: PDE10A (Homo sapiens, UniProt Q9Y233); test: PDE panel inhibitory constant (Ki) determination; assay type: biochemical
Description: as §1

[7] = target: T1, PDE6; test: PDE panel inhibitory constant (Ki) determination; assay type: biochemical
T1 construct: Ki; other: PDE6
Description: as §1

[8] = target: T2, PDE1 (Bovine Brain); test: PDE panel inhibitory constant (Ki) determination; assay type: biochemical
T2 construct: Ki; other: PDE1 (Bovine Brain)
Description: as §1

[9] = target: PDE1B (Homo sapiens, UniProt Q01064); test: PDE panel inhibitory constant (Ki) determination; assay type: biochemical
Description: as §1

[10] = target: PDE3B (Homo sapiens, UniProt Q13370); test: PDE panel inhibitory constant (Ki) determination; assay type: biochemical
Description: as §1

[11] = target: PDE5 (Homo sapiens, UniProt O76074); test: PDE panel inhibitory constant (Ki) determination; assay type: biochemical
Description: as §1

[12] = target: T3, (Homo sapiens, UniProt Q08499); test: PDE panel inhibitory constant (Ki) determination; assay type: biochemical; conditions: PDE1D
T3 construct: Ki; other: PDE1D
Description: as §1

[13] = target: PDE1C (Homo sapiens, UniProt Q14123); test: PDE panel inhibitory constant (Ki) determination; assay type: biochemical
Description: as §1

[14] = target: PDE4A (Homo sapiens, UniProt P27815); test: PDE panel inhibitory constant (Ki) determination; assay type: biochemical
Description: as §1

[15] = target: PDE9A (Homo sapiens, UniProt O76083); test: PDE panel inhibitory constant (Ki) determination; assay type: biochemical
Description: as §1

[16] = target: PDE7B (Homo sapiens, UniProt Q9NP56); test: PDE panel inhibitory constant (Ki) determination; assay type: biochemical
Description: as §1

[17] = target: PDE2A (Homo sapiens, UniProt O00408); test: PDE panel inhibitory constant (Ki) determination; assay type: biochemical
Description: as §1

[18] = target: PDE8A (Homo sapiens, UniProt O60658); test: PDE panel inhibitory constant (Ki) determination; assay type: biochemical
Description: as §1

[19] = system: PDE1 enzymes versus all other PDE families; test: Selectivity over full panel of phosphodiesterase family members; assay type: biochemical
Description: as §1

[20] = target: Compound 2 binding to PDE1 in mouse cortex; test: EGTA titration of Compound 2 binding (calcium dependency)
Description: FIG. 4 illustrates Ca^2+-dependent binding of Compound 2, as defined in Example 1, to mouse cortex. Binding of the radioligand is prevented in the presence of EGTA, a specific chelator of calcium
In a further study, binding of Compound 2 (1.5 nM) to mouse cortex was titrated with different concentration of the calcium chelator EGTA to determine the calcium dependency of the ligand binding. […] Levels of binding activity remaining in the presence of excess (200 uM) EGTA was approximately 5% relative to the binding levels in the absence of EGTA.

[21] = system: PDE1 in striatal slices; test: Striatal slice cGMP levels after K+ depolarization; assay type: cell-based; conditions: 1 μM compound preincubation, 1-minute high K+ depolarization
Description: FIG. 1 illustrates the effect of PDE1 inhibition on striatal cGMP levels. Striatal slices were preincubated with either vehicle or compound, followed by a 1-minute stimulation with high K+ or vehicle. cGMP levels were normalized to baseline levels for comparison. […] PDE1 inhibition by 1 μM ITI-041 or 1 μM ITI-214 in the presence of K+ depolarization (striped bars).
Striatal tissue slice preparations were used to further study regulation of PDE1 by intracellular calcium concentration. The striatal slice preparation maintains a portion of the circuitry of the intact striatum including interneurons, nerve terminals from cortical and nigral neuronal inputs, and medium spiny neurons, which account for the majority (95%) of neurons. Depolarization of the cell membrane by increasing external potassium (K+) concentration is a well-established method of stimulating striatal slices, particularly to trigger release of neurotransmitters such as glutamate from the nerve terminals. Under these conditions, both voltage gated calcium channels and NMDA receptors are expected to open, allowing an influx of calcium into the cells. The increase in intracellular calcium can both activate PDE1 in the medium spiny neurons and activate nitric oxide synthase (NOS) in the interneurons via calcium-calmodulin binding. […]

[22] = system: Ca2+/calmodulin-dependent protein kinase II (CaMKII); test: CaMKII phosphorylation (Western blotting); assay type: cell-based; conditions: ionomycin 10 μM, in Krebs buffer
Description: (§2) FIG. 2 illustrates that increased Ca2+ is sufficient to unmask the active site of PDE1 and allow PDE1 inhibitor binding to the active site therefore increasing cGMP. Increased intracellular calcium is sufficient to increase cGMP levels in the presence of PDE1 inhibitor.
(§3) The calcium ionophore ionomycin was used to control intracellular calcium concentrations in the absence of depolarization. Ionomycin (10 μM, in Krebs buffer) increased intracellular calcium, as confirmed by increased calcium-sensitive phosphorylation of Ca2+/calmodulin-dependent protein kinase II (CaMKII), as shown in FIG. 2A. […] Elimination of extracellular calcium by replacing the calcium chloride in the Krebs solution with 3 mM EGTA prevented the elevation in cGMP seen with PDE1 inhibition and ionomycin.

[23] = system: PDE1 in striatal slices; test: Striatal slice cGMP levels with ionomycin; assay type: cell-based; conditions: ionomycin 10 μM alone, in Krebs buffer
Description: as §2, §3

PDE3B, sequence (Q13370 whole entry, species assumed): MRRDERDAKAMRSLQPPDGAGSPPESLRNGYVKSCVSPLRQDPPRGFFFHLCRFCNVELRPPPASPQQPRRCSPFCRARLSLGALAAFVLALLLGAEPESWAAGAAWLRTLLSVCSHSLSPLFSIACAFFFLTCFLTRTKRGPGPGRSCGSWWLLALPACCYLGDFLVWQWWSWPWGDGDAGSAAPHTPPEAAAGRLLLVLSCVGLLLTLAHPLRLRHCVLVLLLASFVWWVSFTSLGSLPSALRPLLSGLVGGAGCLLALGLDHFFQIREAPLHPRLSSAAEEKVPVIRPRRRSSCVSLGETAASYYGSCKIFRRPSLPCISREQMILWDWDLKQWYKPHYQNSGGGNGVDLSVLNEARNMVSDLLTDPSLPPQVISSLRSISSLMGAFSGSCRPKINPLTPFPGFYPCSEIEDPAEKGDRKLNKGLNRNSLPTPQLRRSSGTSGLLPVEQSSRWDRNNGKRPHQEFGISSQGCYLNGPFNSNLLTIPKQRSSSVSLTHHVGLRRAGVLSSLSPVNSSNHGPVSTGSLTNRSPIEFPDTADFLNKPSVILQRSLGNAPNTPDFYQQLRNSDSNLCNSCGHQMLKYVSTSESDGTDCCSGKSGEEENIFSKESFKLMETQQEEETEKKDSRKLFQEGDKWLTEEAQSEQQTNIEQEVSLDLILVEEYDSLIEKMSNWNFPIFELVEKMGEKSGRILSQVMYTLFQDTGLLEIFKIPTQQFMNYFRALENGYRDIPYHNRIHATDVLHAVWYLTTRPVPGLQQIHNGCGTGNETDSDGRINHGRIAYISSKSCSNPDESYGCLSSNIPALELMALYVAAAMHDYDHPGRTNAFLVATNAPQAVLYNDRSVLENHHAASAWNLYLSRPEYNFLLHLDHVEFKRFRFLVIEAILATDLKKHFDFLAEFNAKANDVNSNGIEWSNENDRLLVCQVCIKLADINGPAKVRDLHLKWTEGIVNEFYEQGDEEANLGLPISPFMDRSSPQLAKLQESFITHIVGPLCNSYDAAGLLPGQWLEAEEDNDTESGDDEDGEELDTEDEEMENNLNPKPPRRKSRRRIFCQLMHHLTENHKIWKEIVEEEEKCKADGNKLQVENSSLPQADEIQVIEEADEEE
PDE8A, sequence (O60658 whole entry, species assumed): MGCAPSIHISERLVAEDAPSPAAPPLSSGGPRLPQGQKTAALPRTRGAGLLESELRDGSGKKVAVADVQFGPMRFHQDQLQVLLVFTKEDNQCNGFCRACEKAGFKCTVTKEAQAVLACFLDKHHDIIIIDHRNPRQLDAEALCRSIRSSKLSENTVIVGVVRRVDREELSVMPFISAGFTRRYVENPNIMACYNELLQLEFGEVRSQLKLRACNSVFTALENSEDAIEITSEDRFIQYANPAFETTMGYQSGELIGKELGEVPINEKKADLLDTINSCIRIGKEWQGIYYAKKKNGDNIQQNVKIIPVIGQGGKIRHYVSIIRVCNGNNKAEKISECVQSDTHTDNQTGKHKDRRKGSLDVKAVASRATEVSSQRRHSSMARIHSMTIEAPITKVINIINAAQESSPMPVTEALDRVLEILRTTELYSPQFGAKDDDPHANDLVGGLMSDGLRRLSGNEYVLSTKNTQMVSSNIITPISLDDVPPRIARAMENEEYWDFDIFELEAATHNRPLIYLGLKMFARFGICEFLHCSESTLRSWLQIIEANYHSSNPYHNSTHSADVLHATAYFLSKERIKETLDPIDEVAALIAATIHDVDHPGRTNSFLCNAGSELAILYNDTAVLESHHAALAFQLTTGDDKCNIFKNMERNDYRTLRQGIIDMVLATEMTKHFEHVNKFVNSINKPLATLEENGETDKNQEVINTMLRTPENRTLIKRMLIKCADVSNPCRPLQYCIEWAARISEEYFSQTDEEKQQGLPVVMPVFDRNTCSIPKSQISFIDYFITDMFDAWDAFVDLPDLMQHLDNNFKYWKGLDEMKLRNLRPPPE
PDE1A, sequence (P54750 whole entry, species assumed): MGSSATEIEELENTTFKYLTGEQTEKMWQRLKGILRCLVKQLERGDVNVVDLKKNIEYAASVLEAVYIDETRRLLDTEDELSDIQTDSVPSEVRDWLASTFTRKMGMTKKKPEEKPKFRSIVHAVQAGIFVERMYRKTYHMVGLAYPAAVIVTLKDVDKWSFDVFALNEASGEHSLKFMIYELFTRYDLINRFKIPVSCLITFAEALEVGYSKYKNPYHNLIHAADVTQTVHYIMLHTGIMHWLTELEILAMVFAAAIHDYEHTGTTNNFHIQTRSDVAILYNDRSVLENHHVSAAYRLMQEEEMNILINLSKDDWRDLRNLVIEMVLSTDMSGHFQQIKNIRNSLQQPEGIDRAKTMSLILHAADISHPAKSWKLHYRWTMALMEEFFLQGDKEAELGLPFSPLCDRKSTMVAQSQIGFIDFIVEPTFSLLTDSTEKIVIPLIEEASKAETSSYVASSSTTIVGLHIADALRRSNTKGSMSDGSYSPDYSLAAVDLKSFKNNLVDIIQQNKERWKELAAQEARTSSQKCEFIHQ
PDE9A, sequence (O76083 whole entry, species assumed): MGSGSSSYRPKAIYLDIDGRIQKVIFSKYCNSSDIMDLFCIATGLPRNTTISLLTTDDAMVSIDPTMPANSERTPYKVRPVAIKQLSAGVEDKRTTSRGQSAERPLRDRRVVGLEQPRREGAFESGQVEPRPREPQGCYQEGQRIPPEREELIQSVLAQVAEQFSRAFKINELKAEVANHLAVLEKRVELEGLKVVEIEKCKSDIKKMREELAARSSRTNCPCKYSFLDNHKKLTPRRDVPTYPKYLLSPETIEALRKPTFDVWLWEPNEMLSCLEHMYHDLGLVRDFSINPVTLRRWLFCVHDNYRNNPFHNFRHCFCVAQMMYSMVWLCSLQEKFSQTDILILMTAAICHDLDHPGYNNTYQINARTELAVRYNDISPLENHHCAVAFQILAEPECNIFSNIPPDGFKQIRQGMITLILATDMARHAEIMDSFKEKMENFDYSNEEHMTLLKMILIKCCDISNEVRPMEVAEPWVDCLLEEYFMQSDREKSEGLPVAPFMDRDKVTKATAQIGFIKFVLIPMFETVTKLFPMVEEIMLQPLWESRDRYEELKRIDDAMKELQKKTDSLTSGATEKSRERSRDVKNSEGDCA
PDE7B, sequence (Q9NP56 whole entry, species assumed): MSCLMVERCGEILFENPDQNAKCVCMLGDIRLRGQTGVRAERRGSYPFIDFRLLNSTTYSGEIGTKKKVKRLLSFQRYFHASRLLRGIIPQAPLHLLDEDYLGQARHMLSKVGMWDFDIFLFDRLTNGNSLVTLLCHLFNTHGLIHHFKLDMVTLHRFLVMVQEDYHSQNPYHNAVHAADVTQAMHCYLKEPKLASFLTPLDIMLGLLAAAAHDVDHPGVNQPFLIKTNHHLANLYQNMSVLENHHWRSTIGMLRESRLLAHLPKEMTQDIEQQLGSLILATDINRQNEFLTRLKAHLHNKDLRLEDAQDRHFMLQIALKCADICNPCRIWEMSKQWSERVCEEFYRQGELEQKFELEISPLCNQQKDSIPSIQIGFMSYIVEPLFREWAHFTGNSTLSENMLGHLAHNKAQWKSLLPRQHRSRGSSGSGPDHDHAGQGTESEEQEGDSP
PDE1B, sequence (Q01064 whole entry, species assumed): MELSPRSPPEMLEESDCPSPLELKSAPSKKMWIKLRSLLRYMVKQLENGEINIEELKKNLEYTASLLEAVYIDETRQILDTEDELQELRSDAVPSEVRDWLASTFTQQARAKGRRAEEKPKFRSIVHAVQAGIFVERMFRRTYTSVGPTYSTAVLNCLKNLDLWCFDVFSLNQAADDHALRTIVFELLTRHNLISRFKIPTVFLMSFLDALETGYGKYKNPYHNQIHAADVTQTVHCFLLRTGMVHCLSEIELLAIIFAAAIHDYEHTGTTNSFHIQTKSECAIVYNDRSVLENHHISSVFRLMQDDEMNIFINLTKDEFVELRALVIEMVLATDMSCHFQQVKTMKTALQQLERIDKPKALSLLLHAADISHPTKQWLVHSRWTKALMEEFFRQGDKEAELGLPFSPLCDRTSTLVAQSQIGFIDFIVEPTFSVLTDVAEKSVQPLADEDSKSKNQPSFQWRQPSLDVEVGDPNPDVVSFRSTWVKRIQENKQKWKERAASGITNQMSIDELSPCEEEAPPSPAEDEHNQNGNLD
PDE2A, sequence (O00408 whole entry, species assumed): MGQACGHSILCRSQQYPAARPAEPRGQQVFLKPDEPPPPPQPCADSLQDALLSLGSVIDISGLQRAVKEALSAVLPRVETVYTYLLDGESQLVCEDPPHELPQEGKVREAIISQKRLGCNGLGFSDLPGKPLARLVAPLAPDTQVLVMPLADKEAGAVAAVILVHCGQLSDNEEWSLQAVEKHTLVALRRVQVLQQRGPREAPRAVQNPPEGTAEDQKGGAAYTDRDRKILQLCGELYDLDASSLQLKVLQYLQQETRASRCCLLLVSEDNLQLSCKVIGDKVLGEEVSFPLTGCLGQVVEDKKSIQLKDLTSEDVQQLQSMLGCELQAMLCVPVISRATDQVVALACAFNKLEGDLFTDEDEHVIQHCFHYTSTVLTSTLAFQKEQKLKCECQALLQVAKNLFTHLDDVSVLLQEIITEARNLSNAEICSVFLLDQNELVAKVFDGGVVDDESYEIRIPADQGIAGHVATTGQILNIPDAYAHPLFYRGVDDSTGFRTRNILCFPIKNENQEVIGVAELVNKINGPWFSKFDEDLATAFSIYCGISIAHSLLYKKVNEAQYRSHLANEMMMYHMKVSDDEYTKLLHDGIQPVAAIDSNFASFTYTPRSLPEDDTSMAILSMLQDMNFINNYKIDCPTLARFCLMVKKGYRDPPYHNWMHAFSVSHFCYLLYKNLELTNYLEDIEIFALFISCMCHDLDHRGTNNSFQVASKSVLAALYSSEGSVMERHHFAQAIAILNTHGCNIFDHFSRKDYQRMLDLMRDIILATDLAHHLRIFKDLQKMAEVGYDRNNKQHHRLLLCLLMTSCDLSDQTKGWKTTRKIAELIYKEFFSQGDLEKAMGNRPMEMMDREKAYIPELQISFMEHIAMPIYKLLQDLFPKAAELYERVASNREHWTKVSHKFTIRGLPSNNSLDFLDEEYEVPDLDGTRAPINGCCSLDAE

Ki [1]: 40.7 µM
Ratio PDEx/PDE1A [1]: 26,289
Ratio PDEx/PDE1A [2]: 9,122
Ratio PDEx/PDE1A [3]: 1,561
Ki [4]: 0.0015 µM
Ratio PDEx/PDE1A [4]: 1
Ratio PDEx/PDE1A [5]: 0.67
Ki [6]: 42.9 µM
Ratio PDEx/PDE1A [6]: 27,687
Ki [7]: 14.1 µM
Ki [8]: 0.001 µM
Ki [9]: 0.0092 µM
Ratio PDEx/PDE1A [9]: 5.9
Ki [10]: 78.9 µM
Ratio PDEx/PDE1A [10]: 50,983
Ki [11]: 48.9 µM
Ratio PDEx/PDE1A [11]: 31,595
Ki [12]: 2.4 µM
Ki [13]: 0.0013 µM
Ratio PDEx/PDE1A [13]: 0.85
Ki [14]: 6.6 µM
Ratio PDEx/PDE1A [14]: 4,263
Ki [15]: > 100 µM
Ratio PDEx/PDE1A [15]: >64,589
Ki [16]: 13.1 µM
Ratio PDEx/PDE1A [16]: 8,448
Ki [17]: > 100 µM
Ratio PDEx/PDE1A [17]: >64,589
Ki [18]: > 100 µM
Ratio PDEx/PDE1A [18]: >64,589
selectivity toward all other PDE families [19]: > 1000 fold
Compound: CN1C(=O)c2c(nn(Cc3ccc(C4CCCN4C)cc3)c2Nc2ccc(F)cc2)N2CC(C)(C)N=C12 (stereo not shown) [Compound 1, 3-((4-fluorophenyl)amino)-5,7,7-trimethyl-2-(4-(1-methylpyrrolidin-2-yl)benzyl)-7,8-dihydro-2H-imidazo[1,2-a]pyrazolo[4,3-e]pyrimidin-4(5H)-one]

IC50 ([20]; Compound 2 1.5 nM, mouse cortex, read-out: IC50 for decrease of specific binding of Compound 2): 7.7 µM
binding of the radioligand in the presence of EGTA ([20]; FIG. 4, mouse cortex): prevented
binding activity remaining relative to absence of EGTA ([20]; excess (200 uM) EGTA, mouse cortex): approximately 5%
Compound: O=C(O)CN(CCOCCOCCN(CC(=O)O)CC(=O)O)CC(=O)O [EGTA]

Compound: CN1C(=O)c2c(nn(Cc3ccc(-c4cccc(F)n4)cc3)c2Nc2ccccc2)N2C1=N[C@@H]1CCC[C@@H]12 [ITI-214]
striatal cGMP levels [21]: increased cyclic nucleotide levels

Compound: C[C@H](CCC(=O)O)C[C@H](C)C[C@H](C)C(=O)/C=C(\O)[C@H](C)C[C@H](C)C/C=C/[C@@H](C)[C@@H](O)[C@@H](C)[C@@H](O)C[C@@H]1CC[C@@](C)([C@H]2CC[C@@](C)([C@@H](C)O)O2)O1 [Ionomycin, ionomycin]
calcium-sensitive phosphorylation of CaMKII [22]: increased
striatal cGMP levels [23]: did not lead to elevated cGMP levels
